Our source for the IC50, melting point and inhibition values is PMC3170876 (Chemmedchem, 2011).

In general, IC50 refers to the point on the concentration scale where inhibition reaches its midpoint. A higher IC50 goes with weaker potency. As usually defined, the melting point is the temperature, or range, at which the solid turns liquid. A word on the inhibition: it is the relative decrease from the control value, in per cent.

One data set has as its target human 11β-HSD1 (Homo sapiens, UniProt P28845). The data set is described as follows: 11β-HSD1 inhibition cellular assay. Type of data set: cell-based. Conditions: for IC50: IC50, human 11β-HSD1, HEK293 cell line transfected with human HSD11B1 gene, mean of three measurements, variance less than 20 %; for inhibition at 1 µM: HEK293, read-out: Percent inhibition.
The target in another data set is mouse 11β-HSD1 (Mus musculus, UniProt P50172). The experiment in a line: Inhibition of mouse 11β-HSD1. Type of data set: cell-based.
Sequence of mouse 11β-HSD1 (P50172 whole entry): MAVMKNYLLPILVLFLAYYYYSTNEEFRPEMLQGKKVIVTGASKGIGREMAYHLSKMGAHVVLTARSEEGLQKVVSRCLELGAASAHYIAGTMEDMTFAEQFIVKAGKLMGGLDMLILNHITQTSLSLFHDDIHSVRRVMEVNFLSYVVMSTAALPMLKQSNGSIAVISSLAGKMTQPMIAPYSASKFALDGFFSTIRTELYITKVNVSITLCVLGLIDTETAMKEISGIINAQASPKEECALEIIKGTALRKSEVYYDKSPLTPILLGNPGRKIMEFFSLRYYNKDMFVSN

Sequence of human 11β-HSD1 (P28845 whole entry): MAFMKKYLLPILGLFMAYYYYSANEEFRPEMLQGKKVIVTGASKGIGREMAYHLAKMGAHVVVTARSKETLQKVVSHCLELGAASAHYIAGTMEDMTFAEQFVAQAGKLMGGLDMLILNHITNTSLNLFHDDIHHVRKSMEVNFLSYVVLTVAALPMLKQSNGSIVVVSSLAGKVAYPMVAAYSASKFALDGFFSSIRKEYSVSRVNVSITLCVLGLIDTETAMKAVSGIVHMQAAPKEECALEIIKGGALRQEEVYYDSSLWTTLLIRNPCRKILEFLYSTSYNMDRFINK

Take `Cn1cnnc1S(=O)(=O)CC(=O)C12CC3CC(CC(C3)C1)C2` [Compound 36, 1-(Adamantan-1-yl)-2-(4-methyl-4H-[1,2,4]triazole-3-sulfonyl)ethanone]: the melting point was in the range of 149 to 150 °C. Also, half-maximal inhibition on human 11β-HSD1 (IC50) was put at 95 nM.

`Cc1nnc([S+]([O-])CC(=O)C23CC4CC(CC(C4)C2)C3)s1` (stereo not drawn) [Compound 33, 1-(Adamantan-1-yl)-2-(5-methyl-[1,3,4]thiadiazole-2-sulfinyl)ethanone] had a melting point of 127 to 129 °C. The IC50 on mouse 11β-HSD1 stood at 44 nM. Further, the IC50 against human 11β-HSD1 was determined as 26 nM.

Consider `CCSc1nnc(SCC(=O)C23CC4CC(CC(C4)C2)C3)s1` [Compound 47, 1-(Adamantan-1-yl)-2-{[5-(ethylsulfanyl)-1,3,4-thiadiazol-2-yl]sulfanyl}ethanone], for which the inhibition at 1 µM on human 11β-HSD1 was found to be 68%.

`Cn1c(SCC(=O)C23CC4CC(CC(C4)C2)C3)nnc1-c1cccs1` [Compound 44, 1-(Adamantan-1-yl)-2-{[4-methyl-5-(thiophen-2-yl)-4H-1,2,4-triazol-3-yl]sulfanyl}ethanone]: the melting point lay in the range of 156 to 157 °C. On human 11β-HSD1, this compound came in with an IC50 of 5870 nM.

As for `CN(C)c1nnc(SCC(=O)C23CC4CC(CC(C4)C2)C3)s1` [Compound 45, 1-(Adamantan-1-yl)-2-{[5-(dimethylamino)-1,3,4-thiadiazol-2-yl]sulfanyl}ethanone], the IC50 on human 11β-HSD1 came out at 4000 nM.

For `Cc1csc(CSCC(=O)C23CC4CC(CC(C4)C2)C3)n1` [Compound 13, 1-(Adamantan-1-yl)-2-{[(4-methyl-1,3-thiazol-2-yl)methyl]sulfanyl}ethanone], the IC50 at human 11β-HSD1 turned out to be 327 nM.

At human 11β-HSD1, `CN(C)C(=O)c1ccc(CSCC(=O)C23CC4CC(CC(C4)C2)C3)o1` [Compound 20, 5-({[2-(Adamantan-1-yl)-2-oxoethyl]sulfanyl}methyl)-N,N-dimethylfuran-2-carboxamide] displayed an IC50 of 153 nM.

Take `O=C(O)c1ccc(CSCC(=O)C23CC4CC(CC(C4)C2)C3)o1` [Compound 19, 5-(((2-(Adamantan-1-yl)-2-oxoethyl)thio)methyl)furan-2-carboxylic acid]: at human 11β-HSD1, the inhibition at 1 µM turned out to be 67%.

On to `Cc1nnc(SCC(=O)C23CC4CC(CC(C4)C2)C3)n1C(C)C` [Compound 39, 1-(Adamantan-1-yl)-2-{[5-methyl-4-(propan-2-yl)-4H-1,2,4-triazol-3-yl]sulfanyl}ethanone], for which the IC50 on human 11β-HSD1 is 137 nM.

On to `Cc1csc(COCC(=O)C23CC4CC(CC(C4)C2)C3)n1` [Compound 9, 1-(Adamantan-1-yl)-2-[(4-methyl-1,3-thiazol-2-yl)methoxy]ethanone], for which the melting point fell in the range of 77 to 80 °C.

Consider `O=C(CSCc1ccco1)C12CC3CC(CC(C3)C1)C2` [Compound 11, 1-(Adamantan-1-yl)-2-(furan-2-ylmethylsulfanyl)-ethanone], for which the IC50 against human 11β-HSD1 is 163 nM.

Compound `O=C(CSc1nnc(C2CC2)n1C1CC1)C12CC3CC(CC(C3)C1)C2` [Compound 43, 1-(Adamantan-1-yl)-2-[(4,5-dicyclopropyl-4H-1,2,4-triazol-3-yl)sulfanyl]ethanone] came in with a melting point of 117 to 119 °C. Further, the IC50 on human 11β-HSD1 is 1860 nM.

Take `O=C(CSCc1nccs1)C12CC3CC(CC(C3)C1)C2` [Compound 12, 1-(Adamantan-1-yl)-2-[(1,3-thiazol-2-ylmethyl)sulfanyl]ethanone]: the melting point is 55 to 58 °C. Also, at human 11β-HSD1, half-maximal inhibition (IC50) was put at 244 nM.

`Nc1nnc(S(=O)(=O)CC(=O)C23CC4CC(CC(C4)C2)C3)s1` [Compound 49, 1-(Adamantan-1-yl)-2-(5-amino-1,3,4-thiadiazole-2-sulfonyl)ethanone] registered a melting point of 202 to 204 °C. This compound also registered an IC50 on human 11β-HSD1 of 1790 nM.

For the compound `COC(=O)Cc1nnc(SCC(=O)C23CC4CC(CC(C4)C2)C3)n1C` [Compound 42, Methyl 2-(5-{[2-(adamantan-1-yl)-2-oxoethyl]sulfanyl}-4-methyl-4H-1,2,4-triazol-3-yl)acetate], the IC50 at human 11β-HSD1 was determined as 97 nM.

On human 11β-HSD1, `CC(=O)Nc1nnc(SCC(=O)C23CC4CC(CC(C4)C2)C3)s1` [Compound 50, N-(5-{[2-(Adamantan-1-yl)-2-oxoethyl]sulfanyl}-1,3,4-thiadiazol-2-yl)acetamide] returned an IC50 of 848 nM.

On human 11β-HSD1, `O=C(CSCc1cccs1)C12CC3CC(CC(C3)C1)C2` [Compound 10, 1-(Adamantan-1-yl)-2-(thiophen-2-ylmethylsulfanyl)ethanone] yielded an IC50 of 143 nM.

For the compound `Nc1nnc(SCC(=O)C23CC4CC(CC(C4)C2)C3)s1` [Compound 48, 1-(Adamantan-1-yl)-2-[(5-amino-1,3,4-thiadiazol-2-yl)sulfanyl]ethanone], the melting point is 198 to 199 °C. For the same compound, inhibition on human 11β-HSD1 was half-maximal at 71 nM (IC50).

`O=C(COCc1cccs1)C12CC3CC(CC(C3)C1)C2` [Compound 6, 1-(Adamantan-1-yl)-2-(thiophen-2-ylmethoxy)ethanone]: the melting point was in the range of 57 to 58 °C. It took 410 nM to reach half-maximal inhibition at human 11β-HSD1 (IC50).

Take `O=C(COCc1ccsc1)C12CC3CC(CC(C3)C1)C2` [Compound 7, 1-(Adamantan-1-yl)-2-(thiophen-3-ylmethoxy)ethanone]: the melting point lay within 58 to 60 °C. The compound further registered an IC50 on human 11β-HSD1 of 280 nM.

In the case of `Cc1nnc(SCC(=O)C23CC4CC(CC(C4)C2)C3)s1` [Compound 29, 1-(Adamantan-1-yl)-2-(5-methyl-[1,3,4]thiadiazol-2-ylsulfanyl)-ethanone], the melting point is 102 to 105 °C.

Regarding `CSc1nnc(SCC(=O)C23CC4CC(CC(C4)C2)C3)s1` [Compound 46, 1-(Adamantan-1-yl)-2-{[5-(methylsulfanyl)-1,3,4-thiadiazol-2-yl]sulfanyl}ethanone], the melting point lay within 133.5 to 135 °C. Besides, on human 11β-HSD1, half-maximal inhibition (IC50) required 306 nM.

Take `Cn1c(SCC(=O)C23CC4CC(CC(C4)C2)C3)nnc1C1CC1` [Compound 40, 1-(Adamantan-1-yl)-2-[(5-cyclopropyl-4-methyl-4H-1,2,4-triazol-3-yl)sulfanyl]ethanone]: the IC50 on human 11β-HSD1 was 129 nM.

Consider `COCc1nnc(SCC(=O)C23CC4CC(CC(C4)C2)C3)n1C` [Compound 41, 1-(Adamantan-1-yl)-2-{[5-(methoxymethyl)-4-methyl-4H-1,2,4-triazol-3-yl]sulfanyl}ethanone], for which, on human 11β-HSD1, it took 153 nM to reach half-maximal inhibition (IC50).

As for `COC(=O)c1ccc(CSCC(=O)C23CC4CC(CC(C4)C2)C3)o1` [Compound 18, Methyl 5-({[2-(adamantan-1-yl)-2-oxoethyl]sulfanyl}methyl)furan-2-carboxylate], the IC50 against human 11β-HSD1 was found to be 264 nM.

In turn, `O=C(CSc1cccs1)C12CC3CC(CC(C3)C1)C2` [Compound 26, 1-(Adamantan-1-yl)-2-(thiophen-2-ylsulfanyl)-ethanone] returned a melting point of 69 to 72 °C. On human 11β-HSD1, this compound showed an IC50 of 101 nM.

Compound `Cn1ccnc1S(=O)(=O)CC(=O)C12CC3CC(CC(C3)C1)C2` [Compound 35, 1-(Adamantan-1-yl)-2-(1-methyl-1H-imidazole-2-sulfonyl)ethanone] returned a melting point of 124 to 125 °C. The compound further came in with an IC50 at human 11β-HSD1 of 62 nM.

Regarding `Cn1ccnc1SCC(=O)C12CC3CC(CC(C3)C1)C2` [Compound 27, 1-(Adamantan-1-yl)-2-(1-methyl-1H-imidazol-2-ylsulfanyl)-ethanone], the melting point fell in the range of 65 to 69 °C. In addition, the IC50 against human 11β-HSD1 turned out to be 93 nM.
